# Measurements: patent US20140135319A1, “6-SUBSTITUTED IMIDAZOPYRAZINES FOR USE AS MPS-1 AND TKK INHIBITORS IN THE TREATMENT OF HYPERPROLIFERATIVE DISORDERS” (BAYER INTELLECTUAL PROPERTY GMBH, priority 2010, published 2014)
# Target: T1, human kinase Mps-1 (Homo sapiens, UniProt P33981)
# T1 construct: N-terminally GST-tagged human full length recombinant Mps-1 kinase; GST (N); purchased Invitrogen, Karslruhe, Germany PV4071
# T1 sequence (P33981 1-857): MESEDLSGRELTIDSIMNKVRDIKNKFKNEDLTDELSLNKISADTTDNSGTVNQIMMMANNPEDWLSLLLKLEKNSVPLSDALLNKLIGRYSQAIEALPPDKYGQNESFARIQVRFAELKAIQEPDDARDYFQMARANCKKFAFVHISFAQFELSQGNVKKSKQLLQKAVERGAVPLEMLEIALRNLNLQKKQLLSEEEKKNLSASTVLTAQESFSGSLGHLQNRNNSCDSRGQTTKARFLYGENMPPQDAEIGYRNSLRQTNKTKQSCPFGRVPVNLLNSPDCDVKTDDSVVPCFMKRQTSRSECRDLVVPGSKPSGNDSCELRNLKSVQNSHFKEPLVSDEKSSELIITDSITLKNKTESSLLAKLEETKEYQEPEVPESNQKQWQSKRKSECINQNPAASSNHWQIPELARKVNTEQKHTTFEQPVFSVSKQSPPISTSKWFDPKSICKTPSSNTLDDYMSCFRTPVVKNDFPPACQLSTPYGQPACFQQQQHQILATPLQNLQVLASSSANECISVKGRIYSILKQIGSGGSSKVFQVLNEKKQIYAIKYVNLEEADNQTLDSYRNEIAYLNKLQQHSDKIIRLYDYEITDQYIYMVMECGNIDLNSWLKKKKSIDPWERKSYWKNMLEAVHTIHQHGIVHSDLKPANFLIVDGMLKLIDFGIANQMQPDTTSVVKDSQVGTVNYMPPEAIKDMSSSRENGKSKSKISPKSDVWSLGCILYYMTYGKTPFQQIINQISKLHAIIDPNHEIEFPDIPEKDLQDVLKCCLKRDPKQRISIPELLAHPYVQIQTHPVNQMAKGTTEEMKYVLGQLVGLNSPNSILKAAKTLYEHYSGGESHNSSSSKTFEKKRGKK
# Assay: Mps-1 kinase assay (TR-FRET)
# Type: biochemical
# Details: GST-tagged human full length recombinant Mps-1; 10 μM ATP; 1 μM peptide substrate; 60 min at 22° C.
# Summary of the method: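 N-terminally GST-tagged full-length recombinant human Mps-1, about 1 nM final, phosphorylates a biotinylated peptide. Product detected by TR-FRET from Eu-anti-phospho-Ser/Thr antibody to streptavidin-XLent after 1 h at 22° C.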
row,SMILES,IC50 [nM]
1,"Cn1ccc(CNc2nc(-c3cccc(CC(N)=O)c3)cn3c(-c4ccc(C(=O)NC5CC5)cc4)cnc23)n1 [Example 1-94, 4-(6-[3-(2-Amino-2-oxo-ethyl)phenyl]-8-{[(1-methyl-1H-pyrazol-3-yl)methyl]amino}imidazo[1,2-a]pyrazin-3-yl)-N-cyclopropyl benzamide]",4.9
2,"CC(C)CNc1nc(-c2ccoc2)cn2c(-c3ccc(C(=O)NC4CC4)c(Cl)c3)cnc12 [Example 1-33, 2-chloro-N-cyclopropyl-4-{6-(furan-3-yl)-8-[(2-methylpropyl)amino]imidazo[1,2-a]pyrazin-3-yl}benzamide]",12.4
3,"Cc1cc(-c2cnc3c(NCCC(F)(F)F)nc(-c4cccnc4)cn23)ccc1C(=O)NC1CC1 [Example 1-70, N-cyclopropyl-2-methyl-4-{6-(pyridin-3-yl)-8-[(3,3,3-trifluoropropyl)amino]imidazo[1,2-a]pyrazin-3-yl}benzamide]",4.2
4,"CC(C)CNc1nc(-c2cccc(CC(=O)O)c2)cn2c(-c3ccc(C(=O)NC4CC4)cc3)cnc12 [Example 1-88, (3-{3-[4-(cyclopropyl-carbamoyl)phenyl]-8-(iso-butylamino)imidazo[1,2-a]pyrazin-6-yl}phenyl)acetic acid]",50.3

# Next, values leading:
row,IC50 [nM],SMILES
1,6,"Cc1cc(-c2cnc3c(NCC4CCOC4)nc(C4=CCOCC4)cn23)ccc1C(=O)NC1CC1 (stereo not shown) [Example 6-11, N-cyclopropyl-4-{6-(3,6-dihydro-2H-pyran-4-yl)-8-[(tetrahydrofuran-3-ylmethyl)amino]imidazo[1,2-a]pyrazin-3-yl}-2-methylbenzamide]"
2,1.7,"CCCCNc1nc(-c2ccncc2)cn2c(-c3ccc(C(=O)NC4CC4)cc3)cnc12 [Example 3-13, 4-[8-(butylamino)-6-(pyridin-4-yl)imidazo [1,2-a]pyrazin-3-yl]-N-cyclopropylbenzamide]"
3,17.6,"O=C(NC1CC1)c1ccc(-c2cnc3c(NCCCN4CCCC4=O)nc(-c4ccncc4)cn23)cc1 [Example 3-8, N-cyclopropyl-4-[8-{[3-(2-oxopyrrolidin-1-yl)propyl]amino}-6-(pyridin-4-yl)imidazo[1,2-a]pyrazin-3-yl]benzamide]"
